System: 624824-186-R-J2-PDC multicell spheroids, viability
Test: Anticancer human tumor 624824-186-R-J2-PDC patient-derived colon adenocarcinoma cell line growth inhibition [PI3K]
Settings: for IC50: curve of first compound; for viability, T/C: stronger effect = lower value
Outline: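 Complex 3D spheroids (cancer cells + endothelial HUVEC + mesenchymal stem cells); drug pairs of targeted agent x inavolisib/alpelisib/duvelisib/copanlisib; half-log series from ~Cmax, max 10 microM if Cmax unknown; endpoint viability.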

[1] = second compound 0.00316 µM, first compound 0.0316 µM
[2] = second compound 0.00316 µM, first compound 0.1 µM
[3] = second compound 0.00316 µM, first compound 0.316 µM
[4] = second compound 0.00316 µM, first compound 1 µM
[5] = second compound 0.00316 µM, first compound 3.16 µM
[6] = second compound 0.00316 µM, first compound 10 µM
[7] = second compound 0.01 µM, first compound 0.0316 µM
[8] = second compound 0.01 µM, first compound 0.1 µM
[9] = second compound 0.01 µM, first compound 0.316 µM
[10] = second compound 0.01 µM, first compound 1 µM
[11] = second compound 0.01 µM, first compound 3.16 µM
[12] = second compound 0.01 µM, first compound 10 µM
[13] = second compound 0.0316 µM, first compound 0.0316 µM
[14] = second compound 0.0316 µM, first compound 0.1 µM
[15] = second compound 0.0316 µM, first compound 0.316 µM
[16] = second compound 0.0316 µM, first compound 1 µM
[17] = second compound 0.0316 µM, first compound 3.16 µM
[18] = second compound 0.0316 µM, first compound 10 µM
[19] = second compound 0.1 µM, first compound 0.0316 µM
[20] = second compound 0.1 µM, first compound 0.1 µM
[21] = second compound 0.1 µM, first compound 0.316 µM
[22] = second compound 0.1 µM, first compound 1 µM
[23] = second compound 0.1 µM, first compound 3.16 µM
[24] = second compound 0.1 µM, first compound 10 µM
[25] = second compound 0.316 µM, first compound 0.0316 µM
[26] = second compound 0.316 µM, first compound 0.1 µM
[27] = second compound 0.316 µM, first compound 0.316 µM
[28] = second compound 0.316 µM, first compound 1 µM
[29] = second compound 0.316 µM, first compound 3.16 µM
[30] = second compound 0.316 µM, first compound 10 µM
[31] = second compound 1 µM, first compound 0.0316 µM
[32] = second compound 1 µM, first compound 0.1 µM
[33] = second compound 1 µM, first compound 0.316 µM
[34] = second compound 1 µM, first compound 1 µM
[35] = second compound 1 µM, first compound 3.16 µM
[36] = second compound 1 µM, first compound 10 µM
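Note: spheroids exposed to agents for 7 days before viability read.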
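Throughout, for viability, T/C: 100% = DMSO vehicle treated spheroids.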

In the case of `C#Cc1c(F)ccc2cc(O)cc(-c3ncc4c(N5CC6CCC(C5)N6)nc(OCC56CCCN5CC(F)C6)nc4c3F)c12` (stereo not drawn) + COc1c(OCCCN2CCOCC2)ccc2c3n(c(=NC(=O)c4cnc(N)nc4)nc12)CCN3, the IC50 (second compound 0.00316 µM) is reported as over 10 µM, the IC50 (second compound 0.01 µM) is reported as over 10 µM and the IC50 (second compound 0.0316 µM) is reported as over 10 µM. It also gave an IC50 (second compound 0.1 µM) of over 10 µM, an IC50 (second compound 0.316 µM) of over 10 µM and an IC50 (second compound 1 µM) of 6.78 µM. The viability, T/C [1] was 89.2%, the viability, T/C [2] was 101% and the viability, T/C [3] was 73.6%. For the same compound, the viability, T/C [4] was 91.6%, the viability, T/C [5] was 87.9% and the viability, T/C [6] was 80.8%. For the same compound, the viability, T/C [7] was 92.8%, the viability, T/C [8] was 90.2% and the viability, T/C [9] was 89.8%. It also gave a viability, T/C [10] of 78.5%, a viability, T/C [11] of 89.9% and a viability, T/C [12] of 95.4%. It also gave a viability, T/C [13] of 94.3%, a viability, T/C [14] of 77.2% and a viability, T/C [15] of 92.6%. The viability, T/C [16] was 77.5%, the viability, T/C [17] was 80.6% and the viability, T/C [18] was 81.5%. It also gave a viability, T/C [19] of 78.8%, a viability, T/C [20] of 76.9% and a viability, T/C [21] of 66.2%. The viability, T/C [22] was 68.3%, the viability, T/C [23] was 72.8% and the viability, T/C [24] was 72.2%. It also gave a viability, T/C [25] of 72.6%, a viability, T/C [26] of 59.4% and a viability, T/C [27] of 65%. The viability, T/C [28] was 60.4%, the viability, T/C [29] was 58.5% and the viability, T/C [30] was 56.4%. For the same compound, the viability, T/C [31] was 60.1%, the viability, T/C [32] was 59.9% and the viability, T/C [33] was 52.9%. For the same compound, the viability, T/C [34] was 56%, the viability, T/C [35] was 50.8% and the viability, T/C [36] was 49.3%.
In the case of `CC(Cn1ccc(-c2ccc(C#N)c(Cl)c2)n1)NC(=O)c1cc(C(C)O)[nH]n1` (stereo not drawn) + COc1c(OCCCN2CCOCC2)ccc2c3n(c(=NC(=O)c4cnc(N)nc4)nc12)CCN3, the IC50 (second compound 0.00316 µM) is reported as over 10 µM, the IC50 (second compound 0.01 µM) is reported as over 10 µM and the IC50 (second compound 0.0316 µM) is reported as over 10 µM. The IC50 (second compound 0.1 µM) was over 10 µM, the IC50 (second compound 0.316 µM) was over 10 µM and the IC50 (second compound 1 µM) was over 10 µM. For the same compound, the viability, T/C [1] was 86.3%, the viability, T/C [2] was 79% and the viability, T/C [3] was 106%. The viability, T/C [4] was 98.5%, the viability, T/C [5] was 71.5% and the viability, T/C [6] was 117%. It also gave a viability, T/C [7] of 87.1%, a viability, T/C [8] of 89.7% and a viability, T/C [9] of 98%. The viability, T/C [10] was 84.8%, the viability, T/C [11] was 99.6% and the viability, T/C [12] was 114%. The viability, T/C [13] was 102%, the viability, T/C [14] was 88.1% and the viability, T/C [15] was 90.7%. It also gave a viability, T/C [16] of 84.5%, a viability, T/C [17] of 92% and a viability, T/C [18] of 97.2%. For the same compound, the viability, T/C [19] was 76.9%, the viability, T/C [20] was 73.2% and the viability, T/C [21] was 71.6%. The viability, T/C [22] was 76.6%, the viability, T/C [23] was 85.1% and the viability, T/C [24] was 80%. For the same compound, the viability, T/C [25] was 61.4%, the viability, T/C [26] was 70.2% and the viability, T/C [27] was 55.3%. It also gave a viability, T/C [28] of 62.2%, a viability, T/C [29] of 68.1% and a viability, T/C [30] of 63.8%. For the same compound, the viability, T/C [31] was 63%, the viability, T/C [32] was 58.6% and the viability, T/C [33] was 62.7%. It also gave a viability, T/C [34] of 63.6%, a viability, T/C [35] of 63.4% and a viability, T/C [36] of 59%.
Work on `CC1(C)CCC(Nc2ncc(C(F)(F)F)c(-c3c[nH]c4c(P(C)(C)=O)c(C#N)ccc34)n2)CN1` (stereo not drawn) + COc1c(OCCCN2CCOCC2)ccc2c3n(c(=NC(=O)c4cnc(N)nc4)nc12)CCN3 yielded an IC50 (second compound 0.00316 µM) of 3.5 µM, an IC50 (second compound 0.01 µM) of 3.48 µM and an IC50 (second compound 0.0316 µM) of 2.23 µM. It also gave an IC50 (second compound 0.1 µM) of 1.45 µM, an IC50 (second compound 0.316 µM) of 0.28 µM and an IC50 (second compound 1 µM) of under 0.0316 µM. The viability, T/C [1] was 78.3%, the viability, T/C [2] was 104% and the viability, T/C [3] was 92.2%. It also gave a viability, T/C [4] of 89.3%, a viability, T/C [5] of 54.4% and a viability, T/C [6] of 4.77%. For the same compound, the viability, T/C [7] was 73.5%, the viability, T/C [8] was 76.8% and the viability, T/C [9] was 94.8%. For the same compound, the viability, T/C [10] was 83.1%, the viability, T/C [11] was 54.2% and the viability, T/C [12] was 4.78%. The viability, T/C [13] was 82.5%, the viability, T/C [14] was 75.9% and the viability, T/C [15] was 71.5%. The viability, T/C [16] was 61.7%, the viability, T/C [17] was 46.9% and the viability, T/C [18] was 3.67%. The viability, T/C [19] was 63.6%, the viability, T/C [20] was 56.9% and the viability, T/C [21] was 55.1%. The viability, T/C [22] was 49.1%, the viability, T/C [23] was 45.6% and the viability, T/C [24] was 4.59%. The viability, T/C [25] was 54%, the viability, T/C [26] was 51.7% and the viability, T/C [27] was 47.9%. It also gave a viability, T/C [28] of 43.8%, a viability, T/C [29] of 35.4% and a viability, T/C [30] of 2.98%. It also gave a viability, T/C [31] of 43%, a viability, T/C [32] of 44.8% and a viability, T/C [33] of 42.7%. The viability, T/C [34] was 37.2%, the viability, T/C [35] was 32.5% and the viability, T/C [36] was 2.59%.
For `Cn1cnc2c(F)c(Nc3ccc(Br)cc3Cl)c(C(=O)NOCCO)cc21` + Cc1nc(NC(=O)N2CCCC2C(N)=O)sc1-c1ccnc(C(C)(C)C(F)(F)F)c1, the IC50 (second compound 0.0316 µM) was over 3 µM, the IC50 (second compound 0.1 µM) was over 3 µM and the IC50 (second compound 0.316 µM) was over 3 µM. The IC50 (second compound 1 µM) was over 3 µM, the IC50 (second compound 3.16 µM) was 0.69 µM and the IC50 (second compound 10 µM) was 0.0836 µM. For the same compound, the viability, T/C (second compound 0.0316 µM, first compound 0.00949 µM) was 90.2%, the viability, T/C (second compound 0.0316 µM, first compound 0.03 µM) was 68.3% and the viability, T/C (second compound 0.0316 µM, first compound 0.0949 µM) was 78%. It also gave a viability, T/C (second compound 0.0316 µM, first compound 0.3 µM) of 91.2%, a viability, T/C (second compound 0.0316 µM, first compound 0.949 µM) of 89.4% and a viability, T/C (second compound 0.0316 µM, first compound 3 µM) of 76.4%. It also gave a viability, T/C (second compound 0.1 µM, first compound 0.00949 µM) of 82.8%, a viability, T/C (second compound 0.1 µM, first compound 0.03 µM) of 79.7% and a viability, T/C (second compound 0.1 µM, first compound 0.0949 µM) of 72.9%. For the same compound, the viability, T/C (second compound 0.1 µM, first compound 0.3 µM) was 78.5%, the viability, T/C (second compound 0.1 µM, first compound 0.949 µM) was 83.1% and the viability, T/C (second compound 0.1 µM, first compound 3 µM) was 77.4%. It also gave a viability, T/C (second compound 0.316 µM, first compound 0.00949 µM) of 86.7%, a viability, T/C (second compound 0.316 µM, first compound 0.03 µM) of 71.8% and a viability, T/C (second compound 0.316 µM, first compound 0.0949 µM) of 74.3%. For the same compound, the viability, T/C (second compound 0.316 µM, first compound 0.3 µM) was 70.5%, the viability, T/C (second compound 0.316 µM, first compound 0.949 µM) was 77.7% and the viability, T/C (second compound 0.316 µM, first compound 3 µM) was 66.7%. For the same compound, the viability, T/C (second compound 1 µM, first compound 0.00949 µM) was 90.3%, the viability, T/C (second compound 1 µM, first compound 0.03 µM) was 61.8% and the viability, T/C (second compound 1 µM, first compound 0.0949 µM) was 66.6%. It also gave a viability, T/C (second compound 1 µM, first compound 0.3 µM) of 62.7%, a viability, T/C (second compound 1 µM, first compound 0.949 µM) of 77.5% and a viability, T/C (second compound 1 µM, first compound 3 µM) of 51.5%. For the same compound, the viability, T/C (second compound 3.16 µM, first compound 0.00949 µM) was 82.2%, the viability, T/C (second compound 3.16 µM, first compound 0.03 µM) was 73.8% and the viability, T/C (second compound 3.16 µM, first compound 0.0949 µM) was 79.6%. The viability, T/C (second compound 3.16 µM, first compound 0.3 µM) was 63.8%, the viability, T/C (second compound 3.16 µM, first compound 0.949 µM) was 44.6% and the viability, T/C (second compound 3.16 µM, first compound 3 µM) was 22.2%. The viability, T/C (second compound 10 µM, first compound 0.00949 µM) was 63%, the viability, T/C (second compound 10 µM, first compound 0.03 µM) was 58.4% and the viability, T/C (second compound 10 µM, first compound 0.0949 µM) was 43.1%. It also gave a viability, T/C (second compound 10 µM, first compound 0.3 µM) of 44.5%, a viability, T/C (second compound 10 µM, first compound 0.949 µM) of 17.7% and a viability, T/C (second compound 10 µM, first compound 3 µM) of 1.93%.
